In ChEMBL document CHEMBL3399973, “Synthesis and biological evaluation of isoxazoline derivatives as potent M₁ muscarinic acetylcholine receptor agonists” (Bioorg Med Chem Lett, 2015):

How the values were obtained:
[1] = target: T1, Muscarinic acetylcholine receptor M1 (Homo sapiens) (UniProt P11229); settings: HEK293, at 10 µM
T1 sequence (whole entry): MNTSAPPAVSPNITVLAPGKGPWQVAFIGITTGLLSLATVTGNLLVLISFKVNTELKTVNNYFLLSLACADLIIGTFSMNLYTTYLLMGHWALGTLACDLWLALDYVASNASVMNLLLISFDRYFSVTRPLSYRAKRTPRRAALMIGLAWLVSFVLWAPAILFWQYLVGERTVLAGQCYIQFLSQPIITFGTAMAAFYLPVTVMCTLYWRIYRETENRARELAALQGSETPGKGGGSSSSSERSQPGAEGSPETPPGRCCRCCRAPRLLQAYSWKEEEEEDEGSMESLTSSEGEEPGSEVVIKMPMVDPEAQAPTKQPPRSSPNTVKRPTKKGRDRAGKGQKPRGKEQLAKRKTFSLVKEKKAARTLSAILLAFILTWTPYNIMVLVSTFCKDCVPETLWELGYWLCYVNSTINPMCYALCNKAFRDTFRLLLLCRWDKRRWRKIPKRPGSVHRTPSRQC

[2] = target: T2, Muscarinic acetylcholine receptor M1 (Homo sapiens, UniProt P11229)
T2 sequence (P11229 whole entry): T1 sequence (whole entry)

[3] = target: T1, Muscarinic acetylcholine receptor M1 (Homo sapiens); settings: HEK293, at 10 µM; remark: listed apart in the source
[4] = target: T1, Muscarinic acetylcholine receptor M1 (Homo sapiens); assay: Agonist activity at human m1 muscarinic acetylcholine receptor expressed in HEK293 cells assessed as relative ratio of phosphorylated ERK1/2 to ERK1/2 at 1 uM after 2 mins by Western blotting analysis relative to 100 uM acetylcholine response; assay type: cell-based
[5] = target: T1, Muscarinic acetylcholine receptor M1 (Homo sapiens); assay: Agonist activity at human m1 muscarinic acetylcholine receptor expressed in HEK293 cells assessed as relative ratio of phosphorylated ERK1/2 to ERK1/2 at 100 uM after 2 mins by Western blotting analysis relative to 100 uM acetylcholine response; assay type: cell-based
[6] = target: T1, Muscarinic acetylcholine receptor M1 (Homo sapiens); assay: Agonist activity at human m1 muscarinic acetylcholine receptor expressed in HEK293 cells assessed as activation of ERK1/2 phosphorylation after 2 mins by Western blotting analysis; assay type: cell-based
[7] = target: T1, Muscarinic acetylcholine receptor M1 (Homo sapiens); assay: Agonist activity at human m1 muscarinic acetylcholine receptor expressed in HEK293 cells assessed as relative ratio of phosphorylated ERK1/2 to ERK1/2 at 10 uM after 2 mins by Western blotting analysis relative to 100 uM acetylcholine response; assay type: cell-based
SH-SY5Y [8] = assay: Induction of sAPPalpha release in human SH-SY5Y cells assessed as fold changed at 0.1 uM after 1 hr by immunoblotting analysis relative to 100 uM acetylcholine response; assay type: functional
SH-SY5Y [9] = assay: Induction of sAPPalpha release in human SH-SY5Y cells assessed as fold changed at 1 uM after 1 hr by immunoblotting analysis relative to 100 uM acetylcholine response; assay type: functional
SH-SY5Y [10] = assay: Induction of sAPPalpha release in human SH-SY5Y cells assessed as fold changed at 0.01 uM after 1 hr by immunoblotting analysis relative to 100 uM acetylcholine response; assay type: functional
SH-SY5Y [11] = assay: Induction of sAPPalpha release in human SH-SY5Y cells after 1 hr by immunoblotting analysis; assay type: functional, cell-based

SMILES	Efficacy [1] [%]	EC50 [2] [nM]	inhibition [3] [%]	further results
CN1CCC=C(c2ccon2)C1	95.8	780		
CN1CCC=C(C2=NOC(O)C2)C1 (stereo not drawn)	36.9	17300		
O=C1CCCN1C1CC(CN2CCCCC2)=NO1 (stereo not drawn)	2.2		20.7	
CN1CCC=C(C2=NOC(Sc3ccccc3)C2)C1 (stereo not drawn)	2.3		49.4	
CCOC1CC(C2=CCCN(C)C2)=NO1 (stereo not drawn)	2.4		34	
CN1CCCC(C2=NOC(N3CCCC3=O)C2)C1 (stereo not drawn)	2.2		20.7	
CO/N=C/C1=CCCN(C)C1 [MILAMELINE]	83	21		
O=C1CCCN1C1CC(CN2CCCC2)=NO1 (stereo not drawn)	2.2		20.7	
O=C1CCCN1C1CC(CCN2CCCCC2)=NO1 (stereo not drawn)	2.2		20.7	
O=C1CCCN1C1CC(CCN2CCCC2)=NO1 (stereo not drawn)	2.2		20.7	
CN1CCC=C(C2=NOC(C#N)C2)C1 (stereo not drawn)	58.8	7540		
CN1CCC=C(C2=NOC(N3CCCC3=O)C2)C1 (stereo not drawn)	99.5	31		Ratio [4]: 1.3; Ratio [5]: 1.8; Activity [6]: Dose-dependent effect; Ratio [7]: 1.7; fold change (FC) (SH-SY5Y [8]): 2.5; fold change (FC) (SH-SY5Y [9]): 3.4; fold change (FC) (SH-SY5Y [10]): 1.5; Activity (SH-SY5Y [11]): Dose-dependent effect
O=C1CCCN1CC#CCN1CCCC1 [OXOTREMORINE]	108	1.6		
CN1CCC=C(C2=NOC(CO)C2)C1 (stereo not drawn)	1.7		12.3	
CSCC1CC(C2=CCCN(C)C2)=NO1 (stereo not drawn)	61.3	5680		
